# PMC7482066, “Unstable Mechanisms of Resistance to Inhibitors of Escherichia coli Lipoprotein Signal Peptidase” (mBio, 2020)
# “Also recorded” adds a separate entry of the source.
# Tests used:
# Format in all cases: cell-based
# E. cloacae 13047 = assay: Frequency of resistance (FOR); details: 4× MIC, MHII agarose
# Experimental: (§1) Frequencies of resistance (FORs) of G0790 were determined for E. coli CFT073, E. cloacae (ATCC 13047), and K. pneumoniae (ATCC 700603) as previously published ([70]). To determine the FOR, 3 to 4 colonies of the strain to be tested were picked from a fresh plate and diluted to an optical density at 600 nm (OD600) of 0.00001 in 1 ml of cation-adjusted MHBII. Ten independent 5-ml cultures in MHBII were prepared by inoculating 5 μl (approximately 1 × 10^3 CFU) and incubated at 37°C for 18 h. The bacteria were pelleted by centrifugation at 4000 × g at 4°C for 15 min and resuspended in 0.5 ml fresh MHBII. Two hundred fifty microliters of the bacterial suspension was plated evenly on MHII agarose plates containing globomycin or G0790 at a final concentration of 4× and 8× MIC. In parallel, CFU from each independent culture was measured by spotting 10-fold serial dilutions on MHII agar plates and incubated at 37°C for 18 h. Colonies were counted at days 1, 2, and 3 postinoculation. FOR was calculated as the ratio of the total number of resistant colonies relative to the total CFU plated. For strains that had no resistant colonies growing on plates, the p0 method was used to calculate the FOR (FOR = m/total CFU plated, where m = −ln p0 and p0 is the proportion of cultures with no mutants; 0.7 ≥ p0 ≥ 0.1), as described previously ([71]). Colonies were picked and resuspended in 30 μl MHBII broth medium, and 10 μl was plated on an MHII agar plate containing G0790 to be used to determine the MIC. Of the remaining 20 μl, half was used to inoculate 1.5 ml MHBII broth medium containing G0790 and grown at 37°C for 18 h to generate cell lysates for Western blot analysis, isolate genomic DNA (gDNA) for whole-genome sequencing, and for frozen glycerol stocks.
# E. coli CFT073 Δlpp = assay: Frequency of resistance (FOR); details: for FOR (frequency of resistance): MHII agarose
# Experimental: as §1
# E. coli CFT073 [1] = assay: Frequency of resistance (FOR); details: 4× MIC, MHII agarose
# Experimental: as §1
# K. pneumoniae 700603 = assay: Frequency of resistance (FOR); details: 4× MIC
# Experimental: as §1
# [2] = system: G0790-resistant E. coli CFT073; assay: Population analysis profile (heteroresistance); details: MHII agarose, 18 h, 37°C
# Experimental: The population analysis profiles of G0790 heteroresistant subpopulations were determined according to a method described previously ([79]). Briefly, three independent cultures for each G0790-resistant mutant strain were grown overnight at 37°C in MHBII containing G0790 at sub-MICs to maintain selective pressure. Five microliters or 10-fold serial dilution (10^−1 to 10^−7) in duplicates for each culture were transferred to MHII agarose plates or MHII agarose plates containing a range of G0790 concentrations (100, 75, 50, 37.5, 25, 12.5, 6.25, 3.125, 1.56, 0.8, and 0.4 μM). CFU were enumerated after incubation at 37°C for 18 h. Heteroresistance was defined using the criteria published by El-Halfawy and colleagues, which states there should be a >8-fold difference between the highest noninhibitory concentration and the highest inhibitory concentration ([2], [80]).
# E. coli CFT073 [3] = assay: Bactericidal activity, CFU over time; details: G0790 at 2× MIC, two independent experiments in duplicates
# E. coli CFT073 [4] = assay: Electron microscopy / live-cell imaging of morphology; details: CFT073, 2× MIC, 1 h (EM)
# Experimental: Electron microscopy was performed as previously described ([61]). […] Cells were immediately placed between a coverslip and a 1% MHII agarose pad containing 12.4 μM G0790 and 10 μg/ml gentamicin for imaging. Cells were maintained at 37°C during imaging with a stage-top chamber (Okolab Inc.). Cells were imaged on a Nikon Eclipse Ti inverted confocal microscope (Nikon Instruments Inc.) coupled with an UltraVIEW VoX (PerkinElmer Inc.) and a 100× (numerical aperture [NA] 1.40) oil-immersion lens objective. Images were captured at various times using an ORCA-Flash 4.0 CMOS camera (Hamamatsu Photonics), collected using Volocity software (Quorum Technologies), and processed using Fiji ([66]).
smiles,measurement,setting,value
CCCCCC[C@H]1OC(=O)CNC(=O)[C@H]([C@H](C)O)NC(=O)[C@H](CN)NC(=O)[C@H](C2CCCCC2)NC(=O)[C@H](CCC)N(C)C(=O)[C@@H]1C [G0790],FOR (frequency of resistance),E. cloacae 13047,2.7 × 10^−9
same,Decrease in FOR in CFT073 Δlpp compared to WT CFT073,E. coli CFT073 Δlpp; 4× MIC,~85 fold
same,FOR (frequency of resistance),E. coli CFT073 Δlpp; 4× MIC,3.4 × 10^−11
same,FOR (frequency of resistance),"E. coli CFT073 Δlpp; 8× MIC, no colonies, p0 method",<1.7 × 10^−11
same,FOR (frequency of resistance),E. coli CFT073 [1],2.9 × 10^−9
same,FOR increase in K. pneumoniae 700603 relative to E. coli,K. pneumoniae 700603,~17 fold
same,FOR (frequency of resistance),K. pneumoniae 700603; MHII agarose,4.8 × 10^−8
same,Fold difference between highest inhibitory and highest noninhibitory concentration,[2]; CFT073 4×-R3,128 fold
same,Fold difference between highest inhibitory and highest noninhibitory concentration,[2]; CFT073 4×-R10,96 fold
same,Fold difference between highest inhibitory and highest noninhibitory concentration,[2]; CFT073 8×-R5,12 fold
same,Bactericidal activity,E. coli CFT073 [3],bactericidal
same,Cell morphology / membrane accumulation,E. coli CFT073 [4],globular cell morphology and accumulation of bacterial membranes; also recorded: changes in cellular morphology and membrane accumulation
